{"source": "BigSolDB 2.1"}
{"smiles": "O=c1cc(-c2ccccc2)c2cc(O)c(O)cc2o1", "values": [{"measurement": "solubility (mole fraction)", "setting": "in acetone, 283.2 K", "result": 0.0022}, {"measurement": "solubility (mole fraction)", "setting": "in acetone, 288.2 K", "result": 0.00228}, {"measurement": "solubility (mole fraction)", "setting": "in acetone, 293.2 K", "result": 0.00237}, {"measurement": "solubility (mole fraction)", "setting": "in acetone, 299.2 K", "result": 0.00246}, {"measurement": "solubility (mole fraction)", "setting": "in acetone, 303.2 K", "result": 0.00266}, {"measurement": "solubility (mole fraction)", "setting": "in acetone, 308.2 K", "result": 0.00299}, {"measurement": "solubility (mole fraction)", "setting": "in chloroform, 283.2 K", "result": "3.75e-08"}, {"measurement": "solubility (mole fraction)", "setting": "in chloroform, 288.2 K", "result": "4.16e-08"}, {"measurement": "solubility (mole fraction)", "setting": "in chloroform, 293.2 K", "result": "5.93e-08"}, {"measurement": "solubility (mole fraction)", "setting": "in chloroform, 299.2 K", "result": "7.09e-08"}, {"measurement": "solubility (mole fraction)", "setting": "in chloroform, 303.2 K", "result": "1.04e-07"}, {"measurement": "solubility (mole fraction)", "setting": "in chloroform, 308.2 K", "result": "1.71e-07"}, {"measurement": "solubility (mole fraction)", "setting": "in ethyl acetate, 283.2 K", "result": 0.000553}, {"measurement": "solubility (mole fraction)", "setting": "in ethyl acetate, 288.2 K", "result": 0.000572}, {"measurement": "solubility (mole fraction)", "setting": "in ethyl acetate, 293.2 K", "result": 0.000616}, {"measurement": "solubility (mole fraction)", "setting": "in ethyl acetate, 299.2 K", "result": 0.000928}, {"measurement": "solubility (mole fraction)", "setting": "in ethyl acetate, 303.2 K", "result": 0.00101}, {"measurement": "solubility (mole fraction)", "setting": "in ethyl acetate, 308.2 K", "result": 0.00139}, {"measurement": "solubility (mole fraction)", "setting": "in methanol, 283.2 K", "result": 0.000986}, {"measurement": "solubility (mole fraction)", "setting": "in methanol, 288.2 K", "result": 0.00102}, {"measurement": "solubility (mole fraction)", "setting": "in methanol, 293.2 K", "result": 0.0011}, {"measurement": "solubility (mole fraction)", "setting": "in methanol, 299.2 K", "result": 0.00129}, {"measurement": "solubility (mole fraction)", "setting": "in methanol, 303.2 K", "result": 0.00147}, {"measurement": "solubility (mole fraction)", "setting": "in methanol, 308.2 K", "result": 0.00179}, {"measurement": "solubility (mole fraction)", "setting": "in n-hexane, 283.2 K", "result": "2.04e-08"}, {"measurement": "solubility (mole fraction)", "setting": "in n-hexane, 288.2 K", "result": "4.3e-08"}, {"measurement": "solubility (mole fraction)", "setting": "in n-hexane, 293.2 K", "result": "5.6e-08"}, {"measurement": "solubility (mole fraction)", "setting": "in n-hexane, 299.2 K", "result": "7.86e-08"}, {"measurement": "solubility (mole fraction)", "setting": "in n-hexane, 303.2 K", "result": "8.43e-08"}, {"measurement": "solubility (mole fraction)", "setting": "in n-hexane, 308.2 K", "result": "1.35e-07"}, {"measurement": "solubility (mole fraction)", "setting": "in water, 283.2 K", "result": "7.94e-08"}, {"measurement": "solubility (mole fraction)", "setting": "in water, 288.2 K", "result": "1.39e-07"}, {"measurement": "solubility (mole fraction)", "setting": "in water, 293.2 K", "result": "1.92e-07"}, {"measurement": "solubility (mole fraction)", "setting": "in water, 299.2 K", "result": "2.39e-07"}, {"measurement": "solubility (mole fraction)", "setting": "in water, 303.2 K", "result": "2.51e-07"}, {"measurement": "solubility (mole fraction)", "setting": "in water, 308.2 K", "result": "3.57e-07"}]}
{"smiles": "COc1cc2oc(=O)cc(-c3ccccc3)c2cc1O", "values": [{"measurement": "solubility (mole fraction)", "setting": "in acetone, 283.2 K", "result": 0.00229}, {"measurement": "solubility (mole fraction)", "setting": "in acetone, 288.2 K", "result": 0.00237}, {"measurement": "solubility (mole fraction)", "setting": "in acetone, 293.2 K", "result": 0.00256}, {"measurement": "solubility (mole fraction)", "setting": "in acetone, 299.2 K", "result": 0.0027}, {"measurement": "solubility (mole fraction)", "setting": "in acetone, 303.2 K", "result": 0.00326}, {"measurement": "solubility (mole fraction)", "setting": "in acetone, 308.2 K", "result": 0.0037}, {"measurement": "solubility (mole fraction)", "setting": "in chloroform, 283.2 K", "result": 0.00313}, {"measurement": "solubility (mole fraction)", "setting": "in chloroform, 288.2 K", "result": 0.00361}, {"measurement": "solubility (mole fraction)", "setting": "in chloroform, 293.2 K", "result": 0.00374}, {"measurement": "solubility (mole fraction)", "setting": "in chloroform, 299.2 K", "result": 0.00414}, {"measurement": "solubility (mole fraction)", "setting": "in chloroform, 303.2 K", "result": 0.00457}, {"measurement": "solubility (mole fraction)", "setting": "in chloroform, 308.2 K", "result": 0.0059}, {"measurement": "solubility (mole fraction)", "setting": "in ethyl acetate, 283.2 K", "result": 0.0014}, {"measurement": "solubility (mole fraction)", "setting": "in ethyl acetate, 288.2 K", "result": 0.00153}, {"measurement": "solubility (mole fraction)", "setting": "in ethyl acetate, 293.2 K", "result": 0.00165}, {"measurement": "solubility (mole fraction)", "setting": "in ethyl acetate, 299.2 K", "result": 0.00193}, {"measurement": "solubility (mole fraction)", "setting": "in ethyl acetate, 303.2 K", "result": 0.00204}, {"measurement": "solubility (mole fraction)", "setting": "in ethyl acetate, 308.2 K", "result": 0.00223}, {"measurement": "solubility (mole fraction)", "setting": "in methanol, 283.2 K", "result": 0.000504}, {"measurement": "solubility (mole fraction)", "setting": "in methanol, 288.2 K", "result": 0.000516}, {"measurement": "solubility (mole fraction)", "setting": "in methanol, 293.2 K", "result": 0.000542}, {"measurement": "solubility (mole fraction)", "setting": "in methanol, 299.2 K", "result": 0.000646}, {"measurement": "solubility (mole fraction)", "setting": "in methanol, 303.2 K", "result": 0.000722}, {"measurement": "solubility (mole fraction)", "setting": "in methanol, 308.2 K", "result": 0.000835}, {"measurement": "solubility (mole fraction)", "setting": "in n-hexane, 283.2 K", "result": "3.88e-06"}, {"measurement": "solubility (mole fraction)", "setting": "in n-hexane, 288.2 K", "result": "4.03e-06"}, {"measurement": "solubility (mole fraction)", "setting": "in n-hexane, 293.2 K", "result": "4.09e-06"}, {"measurement": "solubility (mole fraction)", "setting": "in n-hexane, 299.2 K", "result": "4.48e-06"}, {"measurement": "solubility (mole fraction)", "setting": "in n-hexane, 303.2 K", "result": "4.76e-06"}, {"measurement": "solubility (mole fraction)", "setting": "in n-hexane, 308.2 K", "result": "5.36e-06"}, {"measurement": "solubility (mole fraction)", "setting": "in water, 283.2 K", "result": "1.03e-07"}, {"measurement": "solubility (mole fraction)", "setting": "in water, 288.2 K", "result": "1.11e-07"}, {"measurement": "solubility (mole fraction)", "setting": "in water, 293.2 K", "result": "1.12e-07"}, {"measurement": "solubility (mole fraction)", "setting": "in water, 299.2 K", "result": "1.12e-07"}, {"measurement": "solubility (mole fraction)", "setting": "in water, 303.2 K", "result": "1.44e-07"}, {"measurement": "solubility (mole fraction)", "setting": "in water, 308.2 K", "result": "1.64e-07"}]}
